Measured values from ChEMBL document CHEMBL3045831, “Insight into the structural requirement of aryltriazolinone derivatives as angiotensin II AT1 receptor: 2D and 3D-QSAR k-Nearest Neighbor Molecular Field Analysis approach” (Med Chem Res, 2012).

Target: T1, Type-1 angiotensin II receptor (Oryctolagus cuniculus, UniProt P34976)
T1 sequence (P34976 whole entry): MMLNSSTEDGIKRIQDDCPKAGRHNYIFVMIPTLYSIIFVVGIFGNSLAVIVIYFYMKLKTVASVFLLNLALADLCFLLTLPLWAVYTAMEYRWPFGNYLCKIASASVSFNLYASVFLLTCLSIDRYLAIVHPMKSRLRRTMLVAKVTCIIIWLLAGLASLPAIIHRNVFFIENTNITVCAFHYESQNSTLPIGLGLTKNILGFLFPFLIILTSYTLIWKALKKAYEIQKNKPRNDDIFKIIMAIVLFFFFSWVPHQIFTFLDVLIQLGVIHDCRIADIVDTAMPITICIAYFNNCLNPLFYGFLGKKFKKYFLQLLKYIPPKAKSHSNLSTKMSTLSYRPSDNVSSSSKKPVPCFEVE
Assay: Antagonist activity at Oryctolagus cuniculus (rabbit) aortic AT1 receptor

Structure (SMILES) | IC50 (read-out: IC50) [nM] | IC50 (read-out: pIC50 (converted)) [nM]
CCCCC(=O)Nc1ccc(Cl)c(-n2nc(CCC)n(Cc3ccc(-c4ccccc4S(=O)(=O)NC(=O)c4cc(Cl)ccc4Cl)cc3F)c2=O)c1 | 0.19 | –
CCCCNC(=O)c1ccc(Cl)c(-n2nc(CCCC)n(Cc3ccc(-c4ccccc4S(=O)(=O)NC(=O)OC(C)(C)C)cc3F)c2=O)c1 | – | 0.178
